Test results from patent publication US9943554B2, “Compositions and methods relating to solenopsins and their uses in treating neurological disorders and enhancing physical performance” (priority 2006, dated 2018).
In brackets after ≈: the same amount, converted by molar mass. Read-outs that look alike come from different tables or passages of the source.

How the values were obtained:
Solubility of SPI-001 = type: physicochemical; details: for solubility: organic solvent or mixture
Procedure: Based on chemical synthesis of SPI-001 and mass spec analysis, the compound has a molecular weight of <500. It is not a protein or peptide, but is a small molecule. SPI-001 is soluble in dimethyl sulfoxide (DMSO) and ethanol to 100 mg/ml. […] SPI-001 can be resuspended in 25% polyethylene glycol (PEG) 400 for oral delivery.

MSK1 = MSK1 (Homo sapiens, UniProt O75582); assay: Initial studies: MSK1; type: biochemical
Chain of MSK1 (O75582 whole entry, species assumed): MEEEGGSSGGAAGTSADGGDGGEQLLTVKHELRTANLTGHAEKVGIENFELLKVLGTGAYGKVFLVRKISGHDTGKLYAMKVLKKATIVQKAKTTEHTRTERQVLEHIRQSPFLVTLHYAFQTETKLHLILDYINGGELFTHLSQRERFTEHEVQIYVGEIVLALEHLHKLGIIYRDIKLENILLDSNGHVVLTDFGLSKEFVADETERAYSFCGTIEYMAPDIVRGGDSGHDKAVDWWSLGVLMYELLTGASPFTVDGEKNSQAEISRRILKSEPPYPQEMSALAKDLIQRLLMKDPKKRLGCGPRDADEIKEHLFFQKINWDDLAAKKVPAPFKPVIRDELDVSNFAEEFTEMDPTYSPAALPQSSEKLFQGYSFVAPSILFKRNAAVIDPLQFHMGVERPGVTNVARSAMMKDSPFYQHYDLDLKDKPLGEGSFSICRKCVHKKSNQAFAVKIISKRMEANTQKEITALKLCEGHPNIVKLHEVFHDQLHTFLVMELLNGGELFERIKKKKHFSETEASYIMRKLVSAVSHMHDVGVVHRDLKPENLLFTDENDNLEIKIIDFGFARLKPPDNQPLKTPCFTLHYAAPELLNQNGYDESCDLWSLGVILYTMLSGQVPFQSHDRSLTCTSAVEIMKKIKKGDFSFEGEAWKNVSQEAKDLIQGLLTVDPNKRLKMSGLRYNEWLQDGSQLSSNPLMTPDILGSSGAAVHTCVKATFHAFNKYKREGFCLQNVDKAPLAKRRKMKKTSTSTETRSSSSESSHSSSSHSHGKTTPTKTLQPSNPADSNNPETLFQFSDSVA

CamK1δ = CamK1δ (Homo sapiens, UniProt Q8IU85); assay: Initial studies: CamK1δ; type: biochemical
Chain of CamK1δ (Q8IU85 whole entry): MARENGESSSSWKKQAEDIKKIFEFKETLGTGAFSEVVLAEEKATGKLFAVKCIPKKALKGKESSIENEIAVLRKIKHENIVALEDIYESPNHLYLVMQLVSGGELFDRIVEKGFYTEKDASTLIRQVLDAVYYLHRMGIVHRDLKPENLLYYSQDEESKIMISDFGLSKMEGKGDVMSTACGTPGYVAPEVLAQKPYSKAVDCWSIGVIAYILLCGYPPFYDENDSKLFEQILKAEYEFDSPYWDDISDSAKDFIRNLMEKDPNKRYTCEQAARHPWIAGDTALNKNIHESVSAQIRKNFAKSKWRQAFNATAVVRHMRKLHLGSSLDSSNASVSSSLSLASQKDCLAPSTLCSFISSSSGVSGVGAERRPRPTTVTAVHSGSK

MAPKAPK2 pathways = assay: Initial studies: MAPKAPK2 pathways; type: biochemical
Pl3 kinase = assay: Initial studies: Pl3 kinase; type: biochemical
[1] = target: T1, muscarinic receptors (M1) (Homo sapiens, UniProt P11229); assay: CEREP screen: muscarinic receptor M1; type: binding; design: dose or concentration left out as unconfirmed
T1 construct: CEREP
T1 sequence (P11229 1-460): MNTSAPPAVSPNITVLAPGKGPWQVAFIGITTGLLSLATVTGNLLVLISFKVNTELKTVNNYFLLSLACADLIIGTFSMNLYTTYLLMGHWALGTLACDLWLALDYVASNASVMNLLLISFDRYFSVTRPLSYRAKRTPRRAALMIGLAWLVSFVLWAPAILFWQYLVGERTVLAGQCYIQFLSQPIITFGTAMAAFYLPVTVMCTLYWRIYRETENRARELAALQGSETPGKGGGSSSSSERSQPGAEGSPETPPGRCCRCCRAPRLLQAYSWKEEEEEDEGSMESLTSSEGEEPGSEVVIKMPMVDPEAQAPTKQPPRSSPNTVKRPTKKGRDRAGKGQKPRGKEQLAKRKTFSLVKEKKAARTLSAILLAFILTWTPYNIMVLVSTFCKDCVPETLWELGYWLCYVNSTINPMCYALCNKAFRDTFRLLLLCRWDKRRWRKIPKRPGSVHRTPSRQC
Procedure: (§1) Recent CEREP screen indicated for SPI-001 ([…]) that it inhibited muscarinic receptors (M1, M2 and M3), Na+ channels and monoamine (NE, DA, and 5-HT) transporters with high affinity (˜90%).

[2] = target: T2, muscarinic receptors (M2) (Homo sapiens, UniProt P08172); assay: CEREP screen: muscarinic receptor M2; type: binding; design: dose or concentration left out as unconfirmed
T2 construct: CEREP
T2 sequence (P08172 1-466): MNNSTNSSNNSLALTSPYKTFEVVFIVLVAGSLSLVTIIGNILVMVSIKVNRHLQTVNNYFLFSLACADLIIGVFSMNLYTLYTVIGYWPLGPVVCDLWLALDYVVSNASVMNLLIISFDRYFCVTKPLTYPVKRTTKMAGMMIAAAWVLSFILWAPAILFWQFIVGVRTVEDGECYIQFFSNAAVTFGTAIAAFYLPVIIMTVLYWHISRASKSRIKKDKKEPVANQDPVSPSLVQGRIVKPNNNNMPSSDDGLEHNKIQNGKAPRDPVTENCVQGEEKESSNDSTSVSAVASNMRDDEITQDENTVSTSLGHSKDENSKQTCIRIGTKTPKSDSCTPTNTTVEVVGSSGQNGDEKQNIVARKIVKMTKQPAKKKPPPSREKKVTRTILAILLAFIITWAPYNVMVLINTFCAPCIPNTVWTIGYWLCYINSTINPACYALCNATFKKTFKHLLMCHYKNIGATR
Procedure: as §1

[3] = target: T3, muscarinic receptors (M3) (Homo sapiens, UniProt P20309); assay: CEREP screen: muscarinic receptor M3; type: binding; design: dose or concentration left out as unconfirmed
T3 construct: CEREP
T3 sequence (P20309 whole entry): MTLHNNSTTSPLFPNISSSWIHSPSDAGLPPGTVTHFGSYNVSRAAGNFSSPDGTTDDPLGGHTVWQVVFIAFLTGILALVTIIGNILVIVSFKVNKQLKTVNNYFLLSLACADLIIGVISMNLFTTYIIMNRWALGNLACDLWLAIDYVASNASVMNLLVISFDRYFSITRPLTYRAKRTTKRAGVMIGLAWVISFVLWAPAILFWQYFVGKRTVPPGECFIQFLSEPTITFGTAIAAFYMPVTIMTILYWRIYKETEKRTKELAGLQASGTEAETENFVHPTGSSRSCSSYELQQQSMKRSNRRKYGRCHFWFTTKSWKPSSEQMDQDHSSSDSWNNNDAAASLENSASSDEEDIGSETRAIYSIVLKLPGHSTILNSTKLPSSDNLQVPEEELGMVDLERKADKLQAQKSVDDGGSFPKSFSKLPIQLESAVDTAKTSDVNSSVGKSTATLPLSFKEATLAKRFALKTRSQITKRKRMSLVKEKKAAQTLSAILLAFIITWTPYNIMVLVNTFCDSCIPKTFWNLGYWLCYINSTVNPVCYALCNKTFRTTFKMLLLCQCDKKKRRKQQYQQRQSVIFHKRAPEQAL
Procedure: as §1

Na+ channels = assay: CEREP screen: Na+ channels; type: binding; details: SPI-001 10 mM
Procedure: as §1

[4] = target: T4, monoamine (NE) transporters (Homo sapiens, UniProt P23975); assay: CEREP screen: NE transporter; type: binding; design: dose or concentration left out as unconfirmed
T4 construct: CEREP
T4 sequence (P23975 whole entry): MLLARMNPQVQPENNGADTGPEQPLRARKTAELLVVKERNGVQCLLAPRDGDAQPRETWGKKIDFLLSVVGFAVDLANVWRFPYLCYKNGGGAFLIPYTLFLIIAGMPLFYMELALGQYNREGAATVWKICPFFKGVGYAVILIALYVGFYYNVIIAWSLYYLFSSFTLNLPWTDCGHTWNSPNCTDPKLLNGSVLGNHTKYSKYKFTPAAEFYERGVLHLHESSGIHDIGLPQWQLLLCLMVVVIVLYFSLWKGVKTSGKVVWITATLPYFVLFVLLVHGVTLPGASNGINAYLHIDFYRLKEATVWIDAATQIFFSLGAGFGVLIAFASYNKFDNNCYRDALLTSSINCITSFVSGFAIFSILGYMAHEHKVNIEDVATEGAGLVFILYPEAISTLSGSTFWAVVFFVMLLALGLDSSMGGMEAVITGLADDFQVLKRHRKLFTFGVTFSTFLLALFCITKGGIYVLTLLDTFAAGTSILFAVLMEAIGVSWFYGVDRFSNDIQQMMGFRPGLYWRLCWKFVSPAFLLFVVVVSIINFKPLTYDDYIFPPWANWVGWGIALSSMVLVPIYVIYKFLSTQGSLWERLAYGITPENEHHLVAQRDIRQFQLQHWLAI
Procedure: as §1

[5] = target: T5, monoamine (DA) transporters (Homo sapiens, UniProt Q01959); assay: CEREP screen: DA transporter; type: binding; design: dose or concentration left out as unconfirmed
T5 construct: CEREP
T5 sequence (Q01959 whole entry): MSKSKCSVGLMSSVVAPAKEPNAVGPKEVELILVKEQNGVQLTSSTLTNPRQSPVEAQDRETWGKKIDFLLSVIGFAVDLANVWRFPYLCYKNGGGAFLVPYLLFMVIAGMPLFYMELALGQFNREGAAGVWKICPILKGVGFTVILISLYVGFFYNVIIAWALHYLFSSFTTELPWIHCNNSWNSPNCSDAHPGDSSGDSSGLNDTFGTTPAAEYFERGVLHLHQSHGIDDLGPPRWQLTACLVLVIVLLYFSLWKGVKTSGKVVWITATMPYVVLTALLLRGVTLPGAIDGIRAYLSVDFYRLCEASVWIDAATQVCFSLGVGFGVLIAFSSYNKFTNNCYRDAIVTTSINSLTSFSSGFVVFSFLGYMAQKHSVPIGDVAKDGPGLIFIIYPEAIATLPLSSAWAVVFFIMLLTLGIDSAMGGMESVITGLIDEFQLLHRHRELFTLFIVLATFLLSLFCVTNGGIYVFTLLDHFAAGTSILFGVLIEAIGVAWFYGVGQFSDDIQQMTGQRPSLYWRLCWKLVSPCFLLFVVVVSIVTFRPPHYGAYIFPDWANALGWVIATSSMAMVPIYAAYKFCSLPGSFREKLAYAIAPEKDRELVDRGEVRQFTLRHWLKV
Procedure: as §1

[6] = target: T6, monoamine (5-HT) transporters (Homo sapiens, UniProt P31645); assay: CEREP screen: 5-HT transporter; type: binding; design: dose or concentration left out as unconfirmed
T6 construct: CEREP
T6 sequence (P31645 whole entry): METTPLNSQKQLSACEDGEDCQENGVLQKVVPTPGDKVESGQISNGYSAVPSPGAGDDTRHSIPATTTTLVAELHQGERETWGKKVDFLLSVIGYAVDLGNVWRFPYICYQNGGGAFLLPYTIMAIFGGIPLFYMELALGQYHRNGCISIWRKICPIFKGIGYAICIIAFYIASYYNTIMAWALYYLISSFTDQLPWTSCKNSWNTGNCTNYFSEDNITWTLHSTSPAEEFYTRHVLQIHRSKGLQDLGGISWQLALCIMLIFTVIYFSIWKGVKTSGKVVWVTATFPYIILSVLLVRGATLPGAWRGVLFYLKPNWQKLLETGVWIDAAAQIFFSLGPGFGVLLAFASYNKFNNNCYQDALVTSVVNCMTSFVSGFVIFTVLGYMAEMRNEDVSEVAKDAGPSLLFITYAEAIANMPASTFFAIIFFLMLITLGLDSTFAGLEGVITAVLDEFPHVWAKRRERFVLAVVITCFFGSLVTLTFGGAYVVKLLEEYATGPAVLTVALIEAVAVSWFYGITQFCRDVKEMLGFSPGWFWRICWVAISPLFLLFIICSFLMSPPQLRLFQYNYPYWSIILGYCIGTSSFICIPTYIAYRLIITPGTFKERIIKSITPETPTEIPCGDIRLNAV
Procedure: as §1

Aβ1-42 peptide [7] = assay: Brain and plasma Aβ1-42 peptide levels in APP transgenic mice after single oral administration; type: in vivo
Description: (§2) The APP mice (male) used in these experiments were designed by microinjection of the human APP gene (with the Swedish and London mutations) into mouse eggs under the control of the platelet-derived growth factor B (PDGF-B) chain gene promoter. The mice were generated on a C57BL/6 background. Animals were housed in the Medical University of South Carolina Animal Facility under a 12:12 light:dark cycle. Animals were housed in standard non-sterile rodent microisolator cages, with filtered cage tops and housed 4 to a cage. Animals were fed ad libitum and maintained by brother sister mating. Transgenic animals were identified by PCR analysis. The mice generated from this construct develop amyloid deposits starting at 3 months of age. Animals were aged for 3 months and then maintained for 90 days and sacrificed for amyloid quantification.
(§3) FIG. 2 illustrates the effect of SPI-001 on brain Aβ1-42 peptide levels when administered at 10 mg/kg orally to the APP transgenic mice. Animals were dosed once with SPI-001 and then examined at 0, 4, 24 hours and 7 days for A[…] peptide levels (Biosource International). […] The plasma levels were opposite to the brain levels.
(§4) Animals were dosed once with SPI-001 and then examined at 0, 4, 24, 48 hours and 7 days for A[…] peptide levels. […] The plasma levels were opposite to the brain levels.

Aβ1-40 peptide [8] = assay: Brain and plasma Aβ1-40 peptide levels in APP transgenic mice after single oral administration; type: in vivo; details: single 10 mg/kg oral, compared with Aβ1-42
Description: as §2, §3, §4

Aβ1-42 peptide [9] = assay: Brain and plasma Aβ1-42 peptide levels in guinea pigs after single oral administration; type: in vivo; details: Guinea Pig, single 10 mg/kg oral
Procedure: (§5) Animals were dosed once with SPI-001 and then examined at 0, 4, 24, 48 hours and 7 days for AP peptide levels.

Aβ1-40 peptide [10] = assay: Brain and plasma Aβ1-40 peptide levels in guinea pigs after single oral administration; type: in vivo; details: Guinea Pig; single 10 mg/kg oral; compared with Aβ1-42
Procedure: as §5

Aβ1-42 peptide [11] = assay: Acute administration for 7 days: brain and plasma Aβ1-42 peptide levels; type: in vivo, APP transgenic mice; details: 10 mg/kg for 7 days in 25% PEG 400, at 7 days
Procedure: Animals were dosed once with SPI-001 and then examined at 7 days for AP peptide levels.

APP transgenic mice [12] = assay: Morris water maze test in APP mice treated for 90 days; type: in vivo; details: 10 mg/kg orally in 25% PEG daily for 3 months (90 days)
Procedure: Morris water-maze testing. All mice were tested once in the Morris water maze test at the end of the experiment. Mice were trained in a 1.2 m open field water maze. The pool was filled to a depth of 30 cm with water and maintained at 25° C. The escape platform (10 cm square) was placed 1 cm below the surface of the water. During the trials, the platform was removed from the pool. The cued test was carried out in the pool surrounded with white curtains to hide any extra-maze cues. All animals underwent non-spatial pretraining (NSP) for three consecutive days. These trials were to prepare the animals for the final behavioral test to determine the retention of memory to find the platform. These trials were not recorded (for training purposes only). For the training and learning studies, the curtains were removed to add extra-maze cues (this allows for the identification of animals with swimming impairments). On day 1, the mice were placed on the hidden platform for 20 seconds (trial 1), for trials 2-3 animals were released in the water at a distance of 10 cm from the cued-platform or hidden platform (trial 4) and allowed to swim to the platform. […]
SPI-001 was administered to APP transgenic mice at 10 mg/kg for 3 months to determine the effect upon Aβ peptide and amyloid load. […] Animals were analyzed for behavioral changes associated with drug treatment (FIG. 7). […]

amyloid load = assay: Amyloid (plaque) load in the brain after repetitive administration for 3 months; type: in vivo; details: APP transgenic mice; 10 mg/kg orally daily for 3 months; compared to control animals
Description: as §2
(§6) SPI-001 was administered to APP transgenic mice at 10 mg/kg for 3 months to determine the effect upon Aβ peptide and amyloid load. Animals were administered SPI-001 orally in 25% PEG daily and examined for abnormal pathology. […] Animals were analyzed for behavioral changes associated with drug treatment (FIG. 7). […] FIG. 8 illustrates the plaque load in the brains of control and SPI-001 treated animals.

Aβ peptide = Aβ peptide levels in the brain after repetitive administration for 3 months; type: in vivo; details: APP transgenic mice; 10 mg/kg orally daily for 3 months; compared to control animals
Description: as §2, §6

APP transgenic mice [13] = assay: Examination for abnormal pathology after repetitive administration for 3 months; type: in vivo; details: 10 mg/kg orally daily for 3 months
Procedure: as §6

[14] = PK profile in plasma and brain of APP transgenic animals; type: in vivo, APP transgenic mice; details: orally 10 mg/kg
Procedure: For PK profile, the APP transgenic animals were administered SPI-001, and blood samples and brain tissue were collected and subjected to drug analysis.

C57BL/6 mice = assay: Selectivity and safety profile in C57BL/6 mice; type: in vivo
Procedure: Animals (C57BL/6 mice, 5 mice per group) were treated with SPI-001 at 0, 4, 40, and 400 mg/kg in 25% PEG 400 with a single dose and examined 14 days later.

[15] = 400 mg/kg in 25% PEG 400 for 14 days
[16] = C57BL/6 mice, single dose 4, 40 and 400 mg/kg in 25% PEG 400, examined 14 days later

With `CCCCCCCCCCC[C@H]1CCC[C@H](C)N1` (relative stereo) [SPI-001, trans-2-methyl 6-n-undecylpiperidine] the solubility (Solubility of SPI-001; dimethyl sulfoxide (DMSO), read-out: solubility in dimethyl sulfoxide (DMSO)) was 100 mg/mL (≈ 395 mM), the solubility (Solubility of SPI-001; ethanol, read-out: solubility in ethanol) was 100 mg/mL (≈ 395 mM) and the solubility in water (Solubility of SPI-001; water) was “slightly soluble”. The “effect on MSK1” value (MSK1) was “inhibits”, the “effect on CamK1δ” value (CamK1δ) was “inhibits” and the “effect on MAPKAPK2 pathways” value (MAPKAPK2 pathways) was “activating”. The “effect on Pl3 kinase” value (Pl3 kinase) was “inhibiting”, the inhibition [1] was ~90% and the inhibition [2] was ~90%. For the same molecule, the inhibition [3] was ~90%, the “inhibition of Na+ channels” value (Na+ channels) was ~90% and the inhibition [4] was ~90%. The inhibition [5] was ~90%, the inhibition [6] was ~90% and the “brain Aβ1-42 peptide levels” value (Aβ1-42 peptide [7]; single 10 mg/kg oral in 25% PEG 400, 4 hr) was “decreased”. For the same molecule, the “plasma Aβ1-42 peptide levels” value (Aβ1-42 peptide [7]; single 10 mg/kg oral, 4 hr) was “increased”, the “brain Aβ1-42 peptide levels” value (Aβ1-42 peptide [7]; single 10 mg/kg oral, 24 hours) was “continued to decrease” and the “plasma Aβ1-42 peptide levels” value (Aβ1-42 peptide [7]; single 10 mg/kg oral, 24 hours) was “continued to increase”. The “brain Aβ1-42 peptide levels” value (Aβ1-42 peptide [7]; single 10 mg/kg oral, 48 hours) was “returned to control levels”, the “plasma Aβ1-42 peptide levels” value (Aβ1-42 peptide [7]; single 10 mg/kg oral, 48 hours) was “returned to control levels” and the “brain Aβ1-42 peptide levels” value (Aβ1-42 peptide [7]; single 10 mg/kg oral, 7 days) was “returned to control levels”. The “plasma Aβ1-42 peptide levels” value (Aβ1-42 peptide [7]; single 10 mg/kg oral, 7 days) was “returned to control levels”, the “brain Aβ1-40 peptide levels” value (Aβ1-40 peptide [8]) was “same levels of decrease in the brain” and the “plasma Aβ1-40 peptide levels” value (Aβ1-40 peptide [8]) was “increase in the plasma”. The “brain Aβ1-42 peptide levels” value (Aβ1-42 peptide [9]; 4 hr) was “decreased”, the “plasma Aβ1-42 peptide levels” value (Aβ1-42 peptide [9]; 4 hr) was “increased” and the “brain Aβ1-42 peptide levels” value (Aβ1-42 peptide [9]; 24 hours) was “continued to decrease”. The “plasma Aβ1-42 peptide levels” value (Aβ1-42 peptide [9]; 24 hours) was “continued to increase”, the “brain Aβ1-42 peptide levels” value (Aβ1-42 peptide [9]; 48 hours) was “returned to control levels” and the “plasma Aβ1-42 peptide levels” value (Aβ1-42 peptide [9]; 48 hours) was “returned to control levels”. The “brain Aβ1-42 peptide levels” value (Aβ1-42 peptide [9]; 7 days) was “returned to control levels”, the “plasma Aβ1-42 peptide levels” value (Aβ1-42 peptide [9]; 7 days) was “returned to control levels” and the “brain Aβ1-40 peptide levels” value (Aβ1-40 peptide [10]) was “same levels of decrease in the brain”. For the same molecule, the “plasma Aβ1-40 peptide levels” value (Aβ1-40 peptide [10]) was “increase in the plasma”, the “brain Aβ1-42 peptide levels” value (Aβ1-42 peptide [11]; compared to control animals given 25% PEG only) was “decreased” and the “plasma Aβ1-42 peptide levels” value (Aβ1-42 peptide [11]; compared to control levels) was “increased”. The “behavior in the Morris Water Maze” value (APP transgenic mice [12]) was “improvement in behavior”, the amyloid load (amyloid load) was “significantly reduced” and the Aβ peptide levels (Aβ peptide) was “significantly reduced”. The “systemic pathological features (liver, kidney, heart, lungs, intestine)” value (APP transgenic mice [13]) was “did not show any signs of systemic pathological features”, the “SPI-001 levels in brain” value [14] was “increased significantly” and the “SPI-001 levels in plasma” value [14] was “increased significantly”. The “time SPI-001 levels were maintained in brain” value [14] was “approximately 24 hours”, the “time SPI-001 levels were maintained in plasma” value [14] was “approximately 24 hours” and the “course of body weight changes” value (C57BL/6 mice; [15]) was “stopped by 14 days and reversed”. The gross behavioral deficits (C57BL/6 mice; [15]) was “no gross behavioral deficits”, the “histological abnormalities in the tissues examined” value (C57BL/6 mice; [15]) was “no histological abnormalities” and the “body weight over the 14 days” value (C57BL/6 mice; 400 mg/kg in 25% PEG 400 for 14 days, 25% PEG animals showed a similar profile) was “slight decrease in body weight”. For the same molecule, the “gross behavioral deficits upon visual inspection (daily)” value (C57BL/6 mice; [16]) was “no gross behavioral deficits” and the “histological analysis of tissues (brain, liver, kidney, heart, intestine, lungs)” value (C57BL/6 mice; [16]) was “did not show any abnormal structures”.
